Source: US7112676B2, “Pyrimido compounds having antiproliferative activity” (Hoffmann-La Roche Inc., priority 2002, dated 2006)

What was measured:
KDR = biological target: T1, KDR (Homo sapiens, UniProt P35968); assay: KDR kinase HTRF assay; format: biochemical; settings: 0.3 mM ATP, read-out: IC50 (μM) - Enzyme Inhibition Assays KDR
T1 construct: EEE-tag
Experimental: (§1) To determine inhibition of KDR, FGFR, EGFR, and PDGFR activity, kinase assays were conducted using an HTRF (Homogeneous Time Resolved Fluorescence) assay. This assay is described in A. J. Kolb et. al., Drug Discovery Today, 1998, 3(7), p 333.
Prior to kinase reaction, recombinant EEE-tagged KDR was activated in the presence of activation buffer (50 mM HEPES, pH 7.4, 1 mM DTT, 10% glycerol, 150 mM NaCl, 0.1 mM EDTA, 26 mM MgCl2, and 4 mM ATP). The enzyme was incubated at 4° C. for 1 hour.
(§2) Kinase activity assays were performed in 96-well polypropylene plates (Falcon) with a total volume of 90 μL in each well. Each well contained 1 μM KDR substrate (Biotin-EEEEYFELVAKKKK), 1 nM activated KDR, and a test compound with one of 8 assay concentrations ranging from 100 μM to […] (1:5 serial dilution). The kinase activity assay was done in the presence of 100 mM HEPES, pH 7.4, 1 mM DTT, 0.1 mM Na2VO4, 25 mM MgCl2, 50 mM NaCl (from KDR stock solution), 1% DMSO (from compound), 0.3 mM ATP (at Km concentration) and 0.02% BSA. The reaction was incubated at 37° C. for 30 minutes. To stop the KDR reaction, 72 μL of reaction mixture was transferred into a STOP plate containing 18 μL of revelation buffer (20 mM EDTA, 50 mM HEPES, pH 7.4, 0.02% BSA, 10 nM Eu-labelled anti-pY antibody (final conc. 2 nM), and 100 nM streptavidin (final conc. 20 nM)). After mixing, 35 μL of solution was transferred into duplicate wells of a 384-well black plate (Costar), and read at 615/665 nm on a Wallac Victor 5 reader.
(§3) Compound IC50 values were determined from duplicate sets of data, and calculated by using Excel and fitting data to equation Y=[(a−b)/{1+(X/c)^d]+b, where a and b are enzyme activity in the presence of no test inhibitor compound and an infinite amount of inhibitor test compound, respectively, c is the IC50 and d is the hill constant of the compound response. The IC50 value is the concentration of test compound that reduces by 50% the enzyme activity under the test conditions described.

PDGFR = PDGFR kinase HTRF assay; format: biochemical; settings: 2.3 μM ATP, read-out: IC50 (μM) - Enzyme Inhibition Assays PDGFR
Experimental: as §1, §2
The PDGFR kinase activity assay was performed with 1 μM substrate (Biotin-EEEEYFELV), 1.0 nM PDGFR, test compounds, 100 mM HEPES, pH 7.4, 1 mM DTT, 5 mM MgCl2, 2 mM MnCl2, 1% DMSO, 2.3 μM ATP (Km for PDGFR), 0.1 mM Na2VO4, and 0.02% BSA. The rest of the assay was performed in the same manner as the KDR assay.
as §3

VEGF-stimulated HUVEC = VEGF-stimulated HUVEC proliferation assay (BrdU); format: cell-based; settings: Homo sapiens, VEGF 20 ng per mL, BrdU labeling, 24 hour exposure, read-out: IC50 (μM) of VEGF and FGF-Stimulated HUVEC Proliferation Assays HUVEC/VEFG
Experimental: The antiproliferative activity of test compounds of this invention in cell-based assays was evaluated by BrdU assay using the BrdU kit (Roche Biochemicals 1-647-229). Human umbilical vein endothelial cells (HUVEC, Clonetics CC-2519) were cultured in EGM-2 (Clonetics CC-3162) medium and seeded at 10000 cells per well in a volume of 200 μL of EGM-2 (Clonetics CC-3162) media in a 96-well flat bottom plates (Costar 3595) overnight. After 24 hours of growth at 37° C. with 5% CO2, the incubation media was removed slowly by aspiration and the content of each well was washed with 300 μL pre-warmed EBM-2 (Clonetics CC-3156) containing 50 μg per mL of gentamycin and 50 ng per mL of amphotercin-B (Clonetics CC-4083). Subsequently, the remaining media was again aspirated and replaced with 160 μL per well of serum starvation media (EBM-2 supplemented with 1% heat inactivated FBS (Clonetics CC-4102), 50 μg per mL gentamycin and 50 ng per mL of amphotercin-B (Clonetics CC-4083), 10 units per mL of Wyeth-Ayerst heparin (NDC0641-0391-25), and 2 mM L-glutamine (GIBCO 25030-081). After serum starving the cells for 24 hours, 20 μL of test compound at 10× test concentration in serum starvation medium with 2.5% DMSO was added to the appropriate wells. The control wells contained 20 μL of serum starvation medium with 2.5% DMSO. Plates were returned to the incubator for 2 hours. After pre-incubating the cells with the test compounds for 2 hours, 20 μL of growth factors at 10× assay concentration diluted in serum starvation media, FGF at 50 ng per mL, or VEGF (R&D systems 293-VE) at 200 ng per mL were added. The final concentration of FGF in the assay was 5 ng per mL and the final concentration of VEGF in the assays was 20 ng per mL. The growth factor free control wells had 20 μL per well of serum starvation media with the same amount of BSA as the wells with growth factors. The plates were returned to the incubator for an additional 22 hours.
After 24 hour exposure to the test compounds, the cells were labeled with BrdU (Roche Biochemicals 1-647-229), by adding 20 μL per well of BrdU labeling reagent that has been diluted (1:100) in serum starvation medium. The plates were then returned to the incubator for 4 hours. The labeling medium was removed by draining the medium onto paper towels. The cells were fixed and DNA denatured by adding 200 μL of fixation/denaturation solution to each well and incubating at room temperature for 45 minutes. The fixation/denaturation solution was drained onto paper towels and to each well was added 100 μL of anti-BrdU-POD and the wells were incubated for 2 hours at room temperature. The antibody solution was removed and the wells were each washed 3–4 times with 300 μl PBS. 100 μL of the TMB substrate solution was added to each well and the wells were incubated at room temperature for 5–8 minutes. The reaction was then stopped by adding 100 μL per well of 1 M phosphoric acid. The plates were read at 450 nm with reference wavelength of 650 nm. The percent inhibition for each test compound was calculated by subtracting the absorbency of the blank (no cells) wells from all wells, then subtracting the division of the average absorbency of each test duplicate by the average of the controls from 1. The final product was then multiplied by 100 (% of inhibition=(1−average absorbency of test duplicate/average of control)100). The IC50 value is the concentration of test compound that inhibits by 50% BrdU labeling, and is a measure of inhibition of cell proliferation. The IC50 is determined from the linear regression of a plot of the logarithm of the concentration versus percent inhibition.

Measured: IC50

T1 sequence (P35968 20-1356, species assumed): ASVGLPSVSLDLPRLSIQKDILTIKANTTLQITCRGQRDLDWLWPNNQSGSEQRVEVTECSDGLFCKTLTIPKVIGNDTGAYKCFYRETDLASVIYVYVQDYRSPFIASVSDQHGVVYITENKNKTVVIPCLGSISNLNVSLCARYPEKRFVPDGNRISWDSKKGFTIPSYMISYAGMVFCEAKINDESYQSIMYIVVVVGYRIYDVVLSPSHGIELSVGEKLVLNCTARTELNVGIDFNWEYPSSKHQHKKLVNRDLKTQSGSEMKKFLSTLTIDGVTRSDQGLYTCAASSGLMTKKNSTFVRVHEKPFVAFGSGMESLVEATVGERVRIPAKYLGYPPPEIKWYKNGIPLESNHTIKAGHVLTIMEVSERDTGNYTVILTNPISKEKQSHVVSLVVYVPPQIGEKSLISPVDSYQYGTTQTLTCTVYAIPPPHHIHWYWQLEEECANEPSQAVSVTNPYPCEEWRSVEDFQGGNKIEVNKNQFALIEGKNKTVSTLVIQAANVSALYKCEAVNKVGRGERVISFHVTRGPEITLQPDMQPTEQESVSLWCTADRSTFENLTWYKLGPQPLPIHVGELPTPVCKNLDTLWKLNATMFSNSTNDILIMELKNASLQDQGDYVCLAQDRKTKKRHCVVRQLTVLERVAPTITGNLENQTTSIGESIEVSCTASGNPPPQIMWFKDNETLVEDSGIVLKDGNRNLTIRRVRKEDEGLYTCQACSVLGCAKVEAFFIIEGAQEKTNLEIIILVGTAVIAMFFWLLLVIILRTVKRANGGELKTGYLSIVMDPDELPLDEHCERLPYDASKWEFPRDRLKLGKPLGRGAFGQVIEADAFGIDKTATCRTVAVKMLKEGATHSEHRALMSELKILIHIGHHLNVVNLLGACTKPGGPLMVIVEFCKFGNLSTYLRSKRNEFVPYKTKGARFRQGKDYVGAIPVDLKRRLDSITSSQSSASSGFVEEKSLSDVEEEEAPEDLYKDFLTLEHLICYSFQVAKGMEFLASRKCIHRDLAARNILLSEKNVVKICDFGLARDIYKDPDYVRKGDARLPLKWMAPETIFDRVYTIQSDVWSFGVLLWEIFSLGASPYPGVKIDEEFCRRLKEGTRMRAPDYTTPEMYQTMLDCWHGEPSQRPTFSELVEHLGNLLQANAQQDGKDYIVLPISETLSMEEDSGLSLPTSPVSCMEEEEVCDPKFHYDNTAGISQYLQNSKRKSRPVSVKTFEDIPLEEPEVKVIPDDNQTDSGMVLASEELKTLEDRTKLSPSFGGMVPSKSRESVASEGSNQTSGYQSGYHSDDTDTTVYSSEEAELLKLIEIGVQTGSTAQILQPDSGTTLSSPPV

COc1ccc(N2C(=O)N(c3ccccc3)c3nc(Nc4ccccc4)ncc3C2C)cc1 (racemic) [Example 1g, (±)-3-(4-Methoxy-phenyl)-4-methyl-1-phenyl-7-phenylamino-3,4-dihydro-1H-pyrimido[4,5-d]pyrimidin-2-one]
< 10 µM: all assays above

COc1ccc(N2C(=O)N(c3ccc(OC)cc3)C(C)c3cnc(Nc4ccccc4)nc32)cc1 (racemic) [Example 4b, (±)-1,3-Bis-(4-methoxy-phenyl)-4-methyl-7-phenylamino-3,4-dihydro-1H-pyrimido[4,5-d]pyrimidin-2-one]
< 10 µM: all assays above

COc1ccc(N2C(=O)N(c3cccc(C#N)c3)c3nc(Nc4ccccc4)ncc3C2C)cc1 (racemic) [Example 5b, (±)-3-[3-(4-Methoxy-phenyl)-4-methyl-2-oxo-7-phenylamino-3,4-dihydro-2H-pyrimido[4,5-d]pyrimidin-1-yl]-benzonitrile]
< 10 µM: all assays above

COc1ccc(N2C(=O)N(c3cccc(C(N)=O)c3)c3nc(Nc4ccccc4)ncc3C2C)cc1 (racemic) [Example 6, (±)-3-[3-(4-Methoxy-phenyl)-4-methyl-2-oxo-7-phenylamino-3,4-dihydro-2H-pyrimido[4,5-d]pyrimidin-1-yl]-benzamide]
< 10 µM: all assays above

COc1ccc(N2C(=O)N(c3ccccc3)c3nc(Nc4ccccc4)ncc3C2C)c(F)c1 (racemic) [Example 8d, (±)-3-(2-Fluoro-4-methoxy-phenyl)-4-methyl-1-phenyl-7-phenylamino-3,4-dihydro-1H-pyrimido[4,5-d]pyrimidin-2-one]
< 10 µM: all assays above

COc1ccc(N2C(=O)N(c3cccc(C#N)c3)c3nc(Nc4ccccc4)ncc3C2C)c(F)c1 (racemic) [Example 9b, (±)-3-[3-(2-Fluoro-4-methoxy-phenyl)-4-methyl-2-oxo-7-phenylamino-3,4-dihydro-2H-pyrimido[4,5-d]pyrimidin-1-yl]-benzonitrile]
< 10 µM: all assays above

COc1ccc(N2C(=O)N(c3cccc(C(N)=O)c3)c3nc(Nc4ccccc4)ncc3C2C)c(F)c1 (racemic) [Example 10, (±)-3-[3-(2-Fluoro-4-methoxy-phenyl)-4-methyl-2-oxo-7-phenylamino-3,4-dihydro-2H-pyrimido[4,5-d]pyrimidin-1-yl]-benzamide]
< 10 µM: all assays above

COc1ccc(N2C(=O)N(c3ccccc3)c3nc(Nc4ccccc4)ncc3[C@@H]2C)cc1 (single isomer, unassigned) [Example 3]
< 10 µM: all assays above

COc1ccc(N2C(=O)N([C@H](C)CO)c3nc(Nc4ccccc4)ncc3[C@@H]2C)cc1 [Example 15b, 1-(2-Hydroxy-1-(R)-methyl-ethyl)-3-(4-methoxy-phenyl)-4-(S)-methyl-7-phenylamino-3,4-dihydro-1H-pyrimido[4,5-d]pyrimidin-2-one]
< 10 µM: all assays above
